The record followed here is US5122523A, “N-acylamino acid derivatives and their pharmaceutical compositions” (Banyu Pharmaceutical Co., Ltd., priority 1987, dated 1992).

Data set [1] in a line: Absorption test by oral administration in rats (plasma concentration). Format: in vivo. Particulars: rat, rats (n=4), 10 mg/kg oral, read-out: Concentration of the compound in plasma. The method, then: TEST EXAMPLE 2: Absorption test by oral administration
10 mg/kg of the compound of Example 16 was orally administered to rats (n=4), whereupon the concentration of the compound in the plasma was measured. The concentration in the plasma was calculated by the inhibiting activities against human plasma renin.

Another data set concerns the target T1, human plasma renin (Homo sapiens, UniProt P00797).
T1 construct: from tissue; host or cells: human plasma
T1 sequence (P00797 67-406): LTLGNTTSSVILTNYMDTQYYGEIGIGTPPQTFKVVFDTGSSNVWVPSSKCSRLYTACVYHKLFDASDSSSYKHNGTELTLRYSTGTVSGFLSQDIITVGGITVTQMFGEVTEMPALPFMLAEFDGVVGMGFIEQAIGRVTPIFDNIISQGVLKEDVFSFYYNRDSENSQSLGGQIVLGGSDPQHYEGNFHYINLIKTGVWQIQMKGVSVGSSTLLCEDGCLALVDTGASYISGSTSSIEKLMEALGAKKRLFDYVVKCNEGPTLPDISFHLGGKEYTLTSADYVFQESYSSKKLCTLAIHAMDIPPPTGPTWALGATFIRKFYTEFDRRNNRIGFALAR
Kind of data set: Renin inhibiting activities (human plasma, angiotensin I by radioimmunoassay). The class given is biochemical. The note with it: pH7.4, 37° C., one hour. The method, then: TEST EXAMPLE 1: Renin inhibiting activities
To 156 μl of a 0.2M sodium phosphate buffer solution (pH7.4), 40 μl of a solution mixture of 34 mM 8-hydroxyquinoline and 100 mM disodium ethylenediamine tetraacetate, 4 μl of dimethyl sulfoxide or a dimethyl sulfoxide solution of an inhibitor and 200 μl of human plasma were added and reacted at 37° C. for one hour. Then, pepstatin was added thereto to terminate the reaction, and the amount of the resulting angiotension I was measured by radio immunoassay whereby the inhibiting activity was determined.

Take `CCCC[C@H](NC(=O)C(Cc1cccc2ccccc12)CS(=O)(=O)CC)C(=O)N[C@@H](CC1CCCCC1)[C@@H](O)[C@H](O)CN1CCOCC1` (mixture of isomers) [Example 16, (2RS,3RS,4S)-4-{L-N-[3-ethylsulfonyl-2-(1-naphthylmethyl)propionyl]norleucyl}amino-5-cyclohexyl-1-morpholino-2,3-pentandiol]: the concentration at 0.5 h in data set [1] (1/2 hrs) worked out at 267 ng/mL. Also, the concentration at 0.25 h in data set [1] (1/4 hrs) was determined as 212 ng/mL. In addition, in data set [1] (1/6 hrs), the concentration at 10 min worked out at 136 ng/mL. In data set [1] (1/12 hrs), the concentration at 5 min is 89 ng/mL. In addition, in data set [1] (1 hr), the concentration at 1 h came out at 183 ng/mL. In addition, the concentration at 2 h in data set [1] (2 hrs) turned out to be 85 ng/mL. The concentration at 4 h in data set [1] (4 hrs) was found to be 34 ng/mL. Also, the concentration at 8 h in data set [1] (8 hrs) came to 12 ng/mL. Moreover, in data set [1] (24 hrs), the concentration at 24 h was 7 ng/mL. Moreover, the IC50 (as a rule, the concentration that gives 50% inhibition) against human plasma renin worked out at 3.4 nM.
`CCS(=O)(=O)C[C@@H](Cc1cccc2ccccc12)C(=O)N[C@@H](Cc1c[nH]cn1)C(=O)N[C@@H](CC1CCCCC1)[C@@H](O)[C@@H](O)CN1CCOCC1` [Example 31, (2S,3R,4S)-4-{L-N^α -[(2S)-3-ethylsulfonyl-2-(1-naphthylmethyl)propionyl]histidyl}amino-5-cyclohexyl-1-morpholino-2,3-pentanediol]: the IC50 against human plasma renin amounted to 4.2 nM.
`CCCC[C@H](NC(=O)[C@H](Cc1cccc2ccccc12)CS(=O)(=O)Cc1ccco1)C(=O)N[C@@H](CC1CCCCC1)[C@@H](O)[C@@H](O)CN1CCOCC1` [Example 47, (2S,3R,4S)-4-{L-N-[(2S)-3-furfurylsulfonyl-2-(1-naphthylmethyl)propionyl]norleucyl}amino-5-cyclohexyl-1-morpholino-2,3-pentanediol]: inhibition on human plasma renin was half-maximal at 2.3 nM (IC50).
On human plasma renin, `CCCC[C@H](NC(=O)C(Cc1ccccc1)CS(=O)(=O)C1CCCC1)C(=O)N[C@@H](CC1CCCCC1)[C@@H](O)[C@@H](O)CN1CCOCC1` (single isomer, unassigned) [Example 51(B), (2S,3R,4S)-4-{L-N-[(2S or R)-3-cyclopentanesulfonyl-2-benzylpropionyl]norleucyl}amino-5-cyclohexyl-1-morpholino-2,3-pentanediol] yielded an IC50 of 2 nM.
`CCCC[C@H](NC(=O)C(CCCS(=O)(=O)CC)Cc1cccc2ccccc12)C(=O)N[C@@H](CC(C)C)[C@@H](O)CC(CC)C(=O)NCC(C)C` (single isomer, unassigned) [Example 13, (2RS,4S,5S)-5-{L-N-[(2R or S)-5-ethylsulfonyl-2-(1-naphthylmethyl)pentanoyl]norleucyl}amino-2-ethyl-4-hydroxy-7-methyloctanoic acid isobutylamide] had an IC50 against human plasma renin of 1.9 nM.
Compound `CCCC[C@H](NC(=O)[C@H](Cc1cccc2ccccc12)CS(=O)(=O)C(C)(C)C)C(=O)N[C@@H](CC1CCCCC1)[C@@H](O)[C@@H](O)CN1CCOCC1` [Example 38, (2S,3R,4S)-4-{L-N-[(2S)-3-tert-butylsulfonyl-2-(1-naphthylmethyl)propionyl]norleucyl}amino-5-cyclohexyl-1-morpholino-2,3-pentanediol] gave an IC50 against human plasma renin of 5.9 nM.
Consider `CCCC[C@H](NC(=O)[C@H](Cc1cccc2ccccc12)CS(=O)(=O)c1ncccn1)C(=O)N[C@@H](CC1CCCCC1)[C@@H](O)[C@@H](O)CN1CCOCC1` [Example 41, (2S,3R,4S)-4-{L-N-[(2S)-2-(1-naphthylmethyl)-3-(pyrimidin-2-yl)sulfonylpropionyl]norleucyl}amino-5-cyclohexyl-1-morpholino-2,3-pentanediol], for which, on human plasma renin, the midpoint of inhibition, the IC50, lay at 1.7 nM.
